In patent US10570125B2, “(Cyano-dimethyl-methyl)-isoxazoles and -[1,3,4]thiadiazoles” (Centrexion Therapeutics Corporation, priority 2013, dated 2020):

Columns and labels:
human CB1R = human CB1R (Homo sapiens (Human), UniProt P21554); assay: CB1 cAMP (assay 2); format: cell-based; details: CHO cells expressing human CB1R; inhibition of forskolin-stimulated cAMP
human MDR1 P-gp = human MDR1 P-gp (Homo sapiens (Human), UniProt P08183); assay: MDCK assay: efflux in MDCK-MDR1 cell monolayers (assay 3); format: in vitro ADME; details: pH 7.4, 37° C.
Experimental: C. Assessment of Efflux in Madin-Darby Canine Kidney Cells Transfected with the Human MDR1 Gene (MDCK Assay) (Assay 3)
Apparent permeability coefficients (PE) of the compounds across the MDCK-MDR1 cell monolayers are measured (pH 7.4, 37° C.) in apical-to-basal (AB) and basal-to-apical (BA) transport direction. AB permeability (PEAB) represents drug absorption from the blood into the brain and BA permeability (PEBA) drug efflux from the brain back into the blood via both passive permeability as well as active transport mechanisms mediated by efflux and uptake transporters that are expressed on the MDCK-MDR1 cells, predominantly by the overexpressed human MDR1 P-gp. The compounds are assigned to permeability/absorption classes by comparison of the AB permeabilities with the AB permeabilities of reference compounds with known in vitro permeability and oral absorption in the human. Identical or similar permeabilities in both transport directions indicate passive permeation, vectorial permeability points to additional active transport mechanisms. Higher PEBA than PEAB indicates the involvement of active efflux mediated by MDR1 P-gp. Active transport is concentration-dependently saturable. MDCK-MDR1 cells (1-2×10e5 cells/1 cm2 area) are seeded on filter inserts (Costar transwell polycarbonate or PET filters, 0.4 μm pore size) and cultured (DMEM) for 7 days. […]

Sequence of human MDR1 P-gp (P08183 whole entry): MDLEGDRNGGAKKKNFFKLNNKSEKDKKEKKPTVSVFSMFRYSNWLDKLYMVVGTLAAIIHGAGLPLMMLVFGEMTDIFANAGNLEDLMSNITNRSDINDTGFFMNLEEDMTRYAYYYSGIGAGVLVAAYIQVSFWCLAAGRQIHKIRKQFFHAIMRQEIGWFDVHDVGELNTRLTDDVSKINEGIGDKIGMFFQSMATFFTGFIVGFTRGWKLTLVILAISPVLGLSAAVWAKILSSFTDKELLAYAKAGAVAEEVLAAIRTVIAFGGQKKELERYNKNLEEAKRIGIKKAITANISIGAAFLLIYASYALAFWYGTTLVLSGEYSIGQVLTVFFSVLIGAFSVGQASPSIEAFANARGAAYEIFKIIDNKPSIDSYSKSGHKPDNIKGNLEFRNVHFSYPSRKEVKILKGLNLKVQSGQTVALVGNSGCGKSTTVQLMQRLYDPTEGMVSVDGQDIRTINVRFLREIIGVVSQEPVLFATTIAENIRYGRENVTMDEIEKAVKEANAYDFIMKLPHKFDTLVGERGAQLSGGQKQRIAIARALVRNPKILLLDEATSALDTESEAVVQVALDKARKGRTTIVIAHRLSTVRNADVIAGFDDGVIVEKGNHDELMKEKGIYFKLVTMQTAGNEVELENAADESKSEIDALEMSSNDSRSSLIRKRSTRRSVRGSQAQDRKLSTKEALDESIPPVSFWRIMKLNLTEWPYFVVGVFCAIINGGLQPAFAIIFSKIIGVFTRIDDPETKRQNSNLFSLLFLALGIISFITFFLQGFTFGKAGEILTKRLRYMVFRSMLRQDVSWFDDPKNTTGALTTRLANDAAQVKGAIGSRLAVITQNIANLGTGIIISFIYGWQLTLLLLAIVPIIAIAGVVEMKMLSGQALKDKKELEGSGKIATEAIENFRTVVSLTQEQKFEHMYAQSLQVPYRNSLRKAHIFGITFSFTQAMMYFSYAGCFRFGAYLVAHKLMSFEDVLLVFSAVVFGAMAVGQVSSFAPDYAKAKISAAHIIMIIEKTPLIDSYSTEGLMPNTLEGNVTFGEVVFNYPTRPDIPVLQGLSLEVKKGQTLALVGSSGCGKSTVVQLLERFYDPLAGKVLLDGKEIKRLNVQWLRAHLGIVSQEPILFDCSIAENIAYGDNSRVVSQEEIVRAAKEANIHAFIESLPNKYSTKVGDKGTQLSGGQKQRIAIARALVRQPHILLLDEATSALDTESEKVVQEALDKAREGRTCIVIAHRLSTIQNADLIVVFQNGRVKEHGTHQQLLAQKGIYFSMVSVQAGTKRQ
Sequence of human CB1R (P21554 whole entry): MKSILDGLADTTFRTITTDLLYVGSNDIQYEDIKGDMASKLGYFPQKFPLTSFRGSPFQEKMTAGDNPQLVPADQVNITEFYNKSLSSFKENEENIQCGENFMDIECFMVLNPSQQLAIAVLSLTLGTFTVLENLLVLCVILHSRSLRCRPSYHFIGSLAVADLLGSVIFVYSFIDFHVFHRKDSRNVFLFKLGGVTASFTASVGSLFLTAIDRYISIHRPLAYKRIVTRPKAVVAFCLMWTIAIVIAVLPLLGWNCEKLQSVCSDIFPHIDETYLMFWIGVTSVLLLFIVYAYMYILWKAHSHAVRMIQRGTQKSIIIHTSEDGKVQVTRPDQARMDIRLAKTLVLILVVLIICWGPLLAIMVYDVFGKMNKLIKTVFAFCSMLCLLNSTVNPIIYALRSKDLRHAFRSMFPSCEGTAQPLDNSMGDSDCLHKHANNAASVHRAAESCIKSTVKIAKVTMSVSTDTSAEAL

Row | Compound | EC50 (human CB1R) [µM] | efflux ratio (human MDR1 P-gp; dog, read-out: MDCK efflux ratio (BA/AB)) | MDCK efflux ratio (BA/AB) (human MDR1 P-gp)
1 | CC(C)(CO)c1cc(NC(=O)C(C)(C)S(=O)(=O)CCCC(F)(F)F)on1 [Example 7 WO2010036630] | 28 | 6.9 | 
2 | CC(C)(O)c1cc(NC(=O)C(C)(C)S(=O)(=O)CCCC(F)(F)F)on1 [Example 134 in WO2010036630] | 26 |  | 3.2
